Measured values from patent US8247595B2, “Organic sulfur compound and its use for controlling harmful arthropod” (Sumitomo Chemical Company, Limited, priority 2007, dated 2012).

Experiments:
Type in all cases: in vivo
[1] = system: Haemaphysalis longicornis; assay: Test Example 5: treated filter paper pouch, death rate of ticks; settings: 48 h, filter paper treated with 100 mg/m^2, non-blood-sucking nymphal ticks, 10 ticks/group, after 2 days, read-out: death rate of the tick
Protocol: Five milligrams of any one of the present compounds (19), (23), (24), (27), (28), (29), (32), (33), (35), (38) and (39) was dissolved in 10 mL of acetone. One milliliter of the acetone solution was uniformly applied on one side of a filter paper (TOYO No. 2; 5×10 cm), so that the filter paper was treated with 100 mg/m^2 of the present compound. After drying, the filter paper was folded in two and its edges were clipped to make a pouch. Non-blood-sucking nymphal ticks (Haemaphysalis longicornis, 10 ticks/group) were put into the pouch, and the pouch was sealed with clips. After 2 days, the number of surviving ticks was examined and the death rate was calculated.
As a result, in treatments with the present compounds (19), (23), (24), (27), (28), (29), (32), (33), (35), (38) and (39), the death rate of the tick was 90%.

[2] = system: Musca domestica; assay: Test Example 2: treated filter paper with sucrose bait, death rate of Musca domestica; settings: 500 ppm test solution, 0.7 ml on filter paper, 10 female imagoes, after 24 hours
Protocol: (§1) Preparations of the present compounds (1), (2), (3), (4), (5), (6), (7), (8), (9), (10), (13), (18), (23), (24), (25), (26), (27), (28), (29), (30), (31), (32), (33), (34), (35), (38) and (39) obtained according to Formulation Example 44 were diluted so that the active ingredient concentration was 500 ppm to obtain test solutions.
(§2) A filter paper having a diameter of 5.5 cm was spread on the bottom of a polyethylene cup having a diameter of 5.5 cm and 0.7 ml of the test solution was added dropwise onto the filter paper. As a bait 30 mg of sucrose was uniformly placed on the filter paper. Into the polyethylene cup, 10 female imagoes of Musca domestica were released and the cup was sealed with a lid. After 24 hours, the number of surviving Musca domestica was examined and the death rate of the pest was calculated.
As a result, in treatments with the present compounds (1), (2), (3), (4), (5), (6), (7), (8), (9), (10), (13), (18), (23), (24), (25), (26), (27), (28), (29), (30), (31), (32), (33), (34), (35), (38) and (39), the death rate of the pest was 70% or more.

[3] = system: Culex pipiens pallens; assay: Test Example 4: larvae released into treated water, death rate of Culex pipiens pallens; settings: 24 h, active ingredient concentration 3.5 ppm in water, 20 last-instar larvae, after one day
Protocol: as §1, with “(7),” for “(7), (8), (9), (10),”, “(13), (14), (15), (16),” for “(13),”, “(18), (22),” for “(18),”, “(35), (36),” for “(35),”
To 100 mL of ion-exchanged water, 0.7 ml of the test solution was added (active ingredient concentration: 3.5 ppm). Into the solution, 20 last-instar larvae of Culex pipiens pallens were released. After one day, the number of surviving Culex pipiens pallens was examined and the death rate of the pest was calculated.
As a result, in treatments with the present compounds (1), (2), (3), (4), (5), (6), (7), (13), (14), (15), (16), (18), (22), (23), (24), (25), (26), (27), (28), (29), (30), (31), (32), (33), (34), (35), (36), (38) and (39), the death rate of the pest was 90% or more.

[4] = system: Blattalla germanica; assay: Test Example 3: treated filter paper with sucrose bait, death rate of Blattalla germanica; settings: 144 h; 500 ppm test solution, 0.7 ml on filter paper; 2 male imagoes; after 6 days
Protocol: as §1, with “compounds” for “compounds (1), (2),”, “(7),” for “(7), (8),”, “(13),” for “(13), (18),”
as §2, with “2 male” for “10 female”, “Blattalla germanica” for “Musca domestica”, “6 days,” for “24 hours,”
As a result, in treatments with the present compounds (3), (4), (5), (6), (7), (9), (10), (13), (23), (24), (25), (26), (27), (28), (29), (30), (31), (32), (33), (34), (35), (38) and (39), the death rate of the pest was 100%.

Row | Compound | pest or weed control at 100 mg/m2 [1] | pest or weed control at 500 ppm [2] | pest or weed control at 3.5 ppm [3] | pest or weed control at 500 ppm [4]
1 | C#CCOCCC(C#N)S(=O)(=O)CCC(F)(F)F (centres unmarked) [present compound (38), 4-(2-propyonyloxy)-2-(3,3,3-trifluoropropylsulfonyl)butanenitrile] | 90% | ≥ 70% | ≥ 90% | 100%
2 | C#CCOCCC(C)(C#N)S(=O)(=O)CCC(F)(F)F (centres unmarked) [present compound (39), 2-methyl-4-(2-propynyloxy)-2-(3,3,3-trifluoropropylsulfonyl)butanenitrile] | 90% | ≥ 70% | ≥ 90% | 100%
3 | C#CCC(C)CCC(C#N)S(=O)(=O)CCC(F)(F)F (centres unmarked) [present compound (27), 5-methyl-2-(3,3,3-trifluoropropylsulfonyl)-7-octynenitrile] | 90% | ≥ 70% | ≥ 90% | 100%
4 | C#CCCCCC(C#N)S(=O)(=O)CCC(F)(F)F (centres unmarked) [present compound (23), 2-(3,3,3-trifluoropropylsulfonyl)-7-octynenitrile] | 90% | ≥ 70% | ≥ 90% | 100%
5 | C#CCCCCCC(C#N)S(=O)(=O)CCC(F)(F)F (centres unmarked) [present compound (24), 2-(3,3,3-trifluoropropylsulfonyl)-8-nonynenitrile] | 90% | ≥ 70% | ≥ 90% | 100%
6 | C#CC(C)CCCC(C#N)S(=O)(=O)CCC(F)(F)F (centres unmarked) [present compound (28), 6-methyl-2-(3,3,3-trifluoropropylsulfonyl)-7-octynenitrile] | 90% | ≥ 70% | ≥ 90% | 100%
7 | C#CCC(CC)CCC(C#N)S(=O)(=O)CCC(F)(F)F (centres unmarked) [present compound (29), 5-ethyl-2-(3,3,3-trifluoropropylsulfonyl)-7-octynenitrile] | 90% | ≥ 70% | ≥ 90% | 100%
8 | C#CCC(C)(C)CCC(C#N)S(=O)(=O)CCC(F)(F)F (centres unmarked) [present compound (33), 5,5-dimethyl-2-(3,3,3-trifluoropropylsulfonyl)-7-octynenitrile] | 90% | ≥ 70% | ≥ 90% | 100%
